Experimental data published in patent publication US11779559B2, “Compositions for treating fungal and bacterial biofilms and methods of using the same” (priority 2017, dated 2023).
Like-named read-outs stand apart in the source and are kept apart here.

Assays:
S. aureus [1] = test: Disruption biofilm assay, bacterial; type: cell-based, Staphylococcus aureus; settings: Staphylococcus aureus; for inhibition at 1 %: 24 h, read-out: Reduce B Biofilm
Description: (§1) Two types of biofilm assays were performed: a sustained inhibition assay and a disruption assay. The sustained inhibition assay assesses the compound's ability to prevent biofilm development throughout all stages of biofilm formation, while the disruption assay assesses the compound's ability to break up an existing mature biofilm. These assays are described in detail in the following article: Lohse, M. B., Gulati, M., Valle Arevalo, A., Fishburn, A., Johnson, A. D., and Nobile, C. […] Antimicrobial Agents and Chemotherapy 61: e02749-16.
(§2) All bacterial biofilm solutions were prepared in Trypic Soy Broth (TSB), supplemented with 1% glucose (henceforth referred to as TSB-G). All subsequent procedures were performed in a manner that maintained sterility. A solution of each amino acid to be tested was prepared in weight to volume concentrations ranging from 0.1-5.0%. Amino acids were also tested in combinations. Compound solutions were homogenized with gentle agitation in the dark (4° C., 24 hours) before use.
(§3) Bacterial strains were streaked on Blood Agar plates (5% sheep blood in Tryptic Soy Agar) and incubated at 37° C. for 24 hours. A single colony from each strain to be tested was inoculated in a TSB broth and grown for 12 hours, at 37° C. with shaking (225 rpm). For the bacterial biofilm inhibition assays, 1 μL of saturated overnight cell culture was added to either 80 μL of TSB-G, or TSB-G supplemented with the amino acid compound solution to be tested, in a 384-well plate. The cells were allowed to adhere to the plate for 60 minutes at 37° C. without shaking. The media was carefully aspirated and 80 μL of TSB-G, or TSB-G supplemented with the amino acid compound solution was added to the plate. The plate was further incubated for 24 hours at 37° C. without shaking. Media was carefully aspirated and the biofilm was measured by optical density at 600 nm. Eight or twelve replicates were performed for each tested condition and the reported values are normalized to the control (TSB-G media only). For the bacterial biofilm disruption assays, 80 μL of TSB-G was added to the plate, along with 1 μL of overnight cell culture. The cells were allowed to adhere to the plate for 60 minutes at 37° C. with no shaking. The media was carefully aspirated and 80 μL of TSB-G was added to the plate. The plate was further incubated for 24 hours at 37° C. with no shaking. Media was carefully aspirated from the mature biofilm and 80 μL of TSB-G, or TSB-G supplemented with the amino acid to be tested, was gently added to the plate. The plate was further incubated for 24 hours at 37° C. without shaking. Media was aspirated and the biofilm was measured by optical density at 600 nm. Twelve replicates were performed for each tested condition and the reported values are normalized to the control (TSB-G media only).

C. albicans [2] = test: Sustained inhibition biofilm assay, fungal; type: cell-based, Candida albicans
Description: as §1, §2
(§4) Fungal strains were streaked on Yeast Peptone Dextrose (YPD) agar plates and incubated at 30° C. for 48 hours. A single colony from each strain to be tested was inoculated into YPD broth and grown for 12 hours, at 30° C., shaking at 225 rpm. […] The cells were allowed to adhere to the plate for 90 minutes at 37° C. with shaking (350 rpm). […] The plate was further incubated for 24 hours at 37° C. with shaking (350 rpm). Media was carefully aspirated and the biofilm was measured by optical density at 600 nm. […] The cells were allowed to adhere to the plate for 90 minutes at 37° C. with shaking (350 rpm). […] The plate was further incubated for 24 hours at 37° C. with shaking (350 rpm). […] The plate was further incubated for 24 hours at 37° C. with shaking (350 rpm). Media was carefully aspirated and the biofilm was measured by optical density at 600 nm.

fungal biofilms = test: Biofilm assays (sustained inhibition and/or disruption), fungal biofilms; type: cell-based; settings: in at least one of the two biofilm assays; for Anti-biofilm effect against fungal biofilms (reduction): administered individually
Description: (§5) Two types of biofilm assays were performed: a sustained inhibition assay and a disruption assay. The sustained inhibition assay assesses the compound's ability to prevent biofilm development throughout all stages of biofilm formation, while the disruption assay assesses the compound's ability to break up an existing mature biofilm. These assays are described in detail in the following article: Lohse, M. B., Gulati, M., Valle Arevalo, A., Fishburn, A., Johnson, A. D., and Nobile, C. J. (2017) Assessment and optimizations of Candida albicans in vitro biofilm assays. Antimicrobial Agents and Chemotherapy 61: e02749-16.
as §2, with “For fungal biofilm assays, all solutions were prepared in RPMI 1640 medium. All bacterial” for “All bacterial”
(§6) All biofilm assays were performed using 384-well non-tissue culture treated polystyrene plates. The fungal species tested are as follows: Candida albicans, Candida guilhermondii, Candida parapsilosis, Candida glabrata, Candida tropicalis, Candida dubliniensis, and Candida auris. The bacterial species tested are as follows: Staphylococcus aureus (standard wild type and methicillin-resistant strain USA300), Escherichia coli, Pseudomonas aeruginosa and Staphylococcus epidermidis.
(§7) Fungal strains were streaked on Yeast Peptone Dextrose (YPD) agar plates and incubated at 30° C. for 48 hours. A single colony from each strain to be tested was inoculated into YPD broth and grown for 12 hours, at 30° C., shaking at 225 rpm. For the fungal biofilm inhibition assay, 1 μl of saturated overnight cell culture was added to either 80 μL of RPMI-1640 or RPMI-1640 supplemented with the amino acid compound solution to be tested, in a 384-well plate. The cells were allowed to adhere to the plate for 90 minutes at 37° C. with shaking (350 rpm). Loosely bound cells were washed once with phosphate buffered saline (PBS) and 80 ul of RPMI-1640, or RPMI-1640 supplemented with the amino acid compound solution was added to the plate. The plate was further incubated for 24 hours at 37° C. with shaking (350 rpm). Media was carefully aspirated and the biofilm was measured by optical density at 600 nm. Twelve replicates were performed for each tested condition and the reported values are normalized to the control (RPMI-1640 media only). For the fungal biofilm disruption assays, 80 μL of RPMI-1640 was added to the plate, along with 1 μL of overnight cell culture. The cells were allowed to adhere to the plate for 90 minutes at 37° C. with shaking (350 rpm). Loosely bound cells were washed once with PBS and 80 μL of RPMI-1640 was added to the plate. The plate was further incubated for 24 hours at 37° C. with shaking (350 rpm). Media was carefully aspirated from the mature biofilm and 80 μL of RPMI-1640, or RPMI-1640 supplemented with the amino acid compound solution to be tested, was gently added to the plate. The plate was further incubated for 24 hours at 37° C. with shaking (350 rpm). Media was carefully aspirated and the biofilm was measured by optical density at 600 nm. Twelve replicates were performed for each tested condition and the reported values are normalized to the control (RPMI-1640 media only).

C. albicans [3] = test: Disruption biofilm assay, fungal; type: cell-based, Candida albicans
Description: as §1, §2, §4

bacterial biofilms = test: Biofilm assays (sustained inhibition and/or disruption), bacterial biofilms; type: cell-based; settings: in at least one of the two biofilm assays
Description: as §5
as §2, with “For fungal biofilm assays, all solutions were prepared in RPMI 1640 medium. All bacterial” for “All bacterial”
as §6, §3

[4] = system: bacteria (S. aureus) biofilm and fungal (C. albicans) biofilm; test: Sustained inhibition biofilm assay, bacterial and fungal taken together; type: cell-based
Description: as §5
as §2, with “For fungal biofilm assays, all solutions were prepared in RPMI 1640 medium. All bacterial” for “All bacterial”
(§8) Fungal strains were streaked on Yeast Peptone Dextrose (YPD) agar plates and incubated at 30° C. for 48 hours. A single colony from each strain to be tested was inoculated into YPD broth and grown for 12 hours, at 30° C., shaking at 225 rpm. For the fungal biofilm inhibition assay, 1 μl of saturated overnight cell culture was added to either 80 μL of RPMI-1640 or RPMI-1640 supplemented with the amino acid compound solution to be tested, in a 384-well plate. […] Media was carefully aspirated and the biofilm was measured by optical density at 600 nm. […] Media was carefully aspirated and the biofilm was measured by optical density at 600 nm. […]
(§9) Bacterial strains were streaked on Blood Agar plates (5% sheep blood in Tryptic Soy Agar) and incubated at 37° C. for 24 hours. […] Media was carefully aspirated and the biofilm was measured by optical density at 600 nm. […]

[5] = system: bacteria (S. aureus) biofilm and fungal (C. albicans) biofilm; test: Disruption biofilm assay, bacterial and fungal taken together; type: cell-based
Description: as §5
as §2, with “For fungal biofilm assays, all solutions were prepared in RPMI 1640 medium. All bacterial” for “All bacterial”
as §8, §9

S. aureus [6] = test: Sustained inhibition biofilm assay, bacterial; type: cell-based, Staphylococcus aureus
Description: as §1, §2, §3

[7] = Thermal stability in hot aqueous solution; type: physicochemical; settings: water at about 90° C. to 100° C.
Excerpt: This ingredient is the non-essential amino acid glutamine.

[8] = system: fungal and bacterial biofilms; test: Biofilm assays (sustained inhibition and disruption), fungal and bacterial biofilms; type: cell-based
Description: as §5
as §2, with “For fungal biofilm assays, all solutions were prepared in RPMI 1640 medium. All bacterial” for “All bacterial”
as §6, §7
Bacterial strains were streaked on Blood Agar plates (5% sheep blood in Tryptic Soy Agar) and incubated at 37° C. for 24 hours. A single colony from each strain to be tested was inoculated in a TSB broth and grown for 12 hours, at 37° C. with shaking (225 rpm).

[9] = disruption assay, S. aureus, 1% amino acid (unless specifically noted), p≤0.001
[10] = sustained inhibition assay, C. albicans, 1% amino acid (unless specifically noted), p≤0.001
[11] = disruption assay, C. albicans, 1% amino acid (unless specifically noted), p≤0.001

With `Cn1cncc1C[C@H](N)C(=O)O` [3-Methylhistidine, 3-methyl-L-histidine] the inhibition at 1 % (S. aureus [1]; [9]) was 10 to 30%, the “Promote F Biofilm” value (C. albicans [2]; [10]) was “● (a single dot [ie. •] signifies minor effect (from about 10 to about 30% change))” and the “Effect on fungal biofilm growth” value (fungal biofilms) was “support (improve) fungal biofilm growth”.
With `CC(C)[C@H](N)C(=O)O` [Valine, L-valine] the inhibition at 1 % (S. aureus [1]; [9]) was 10 to 30%, the “Promote F Biofilm” value (C. albicans [2]; [10]) was “● (a single dot [ie. •] signifies minor effect (from about 10 to about 30% change))” and the “Effect on fungal biofilm growth” value (fungal biofilms) was “support (improve) fungal biofilm growth”.
For `O=C(O)[C@@H]1CCCN1` [Proline, L-proline], the activation at 1 % (S. aureus [1]; disruption assay, S. aureus, 1% amino acid (unless specifically noted), p≤0.001, read-out: Promote B Biofilm) was 10 to 30%, the “Reduce F Biofilm” value (C. albicans [3]; [11]) was “● (a single dot [ie. •] signifies minor effect (from about 10 to about 30% change))” and the “Effect on bacterial biofilm growth” value (bacterial biofilms) was “support (improve) bacterial biofilm growth”. For the same molecule, the “Anti-biofilm effect against fungal biofilms (reduction)” value (“Anti-biofilm effect … (reduction)” for short) (fungal biofilms) was “less than twofold”.
In the case of `N[C@@H](COP(=O)(O)O)C(=O)O` [Phosphoserine, O-phospho-L-serine], the inhibition at 1 % (S. aureus [1]; [9]) is reported as 10 to 30%, the “Reduce F Biofilm” value (C. albicans [3]; [11]) is reported as “● (a single dot [ie. •] signifies minor effect (from about 10 to about 30% change))” and the “Anti-biofilm effect … (reduction)” value (fungal biofilms) is reported as “less than twofold”.
In the case of `NCCO` [Ethanolamine, ethanolamine], the “Reduce F Biofilm” value (C. albicans [2]; [10]) is reported as “● (a single dot [ie. •] signifies minor effect (from about 10 to about 30% change))” and the “Anti-biofilm effect … (reduction)” value (fungal biofilms) is reported as “less than twofold”.
In the case of `N[C@@H](CS)C(=O)O` [Cysteine, L-cysteine], the “Reduce Both” value ([4]; sustained inhibition assay, bacterial and fungal biofilm, 1% amino acid (unless specifically noted), p≤0.001) is reported as “●● (two dots [ie. ••] signifies major effect (greater than about 30% change))”, the “Reduce Both” value ([5]; disruption assay, bacterial and fungal biofilm, 1% amino acid (unless specifically noted), p≤0.001) is reported as “●● (two dots [ie. ••] signifies major effect (greater than about 30% change))” and the inhibition at 1 % (S. aureus [1]; [9]) is reported as greater than 30%. For the same molecule, the “Reduce B Biofilm” value (S. aureus [6]; sustained inhibition assay, S. aureus, 1% amino acid (unless specifically noted), p≤0.001) was “●● (two dots [ie. ••] signifies major effect (greater than about 30% change))”, the “Reduce F Biofilm” value (C. albicans [3]; [11]) was “●● (two dots [ie. ••] signifies major effect (greater than about 30% change))” and the “Reduce F Biofilm” value (C. albicans [2]; [10]) was “●● (two dots [ie. ••] signifies major effect (greater than about 30% change))”.
With `NC(=O)CC[C@H](N)C(=O)O` [Glutamine, L-glutamine] the “Thermal degradation in aqueous solution” value [7] was “highly susceptible to thermal degradation” and the “Effect on bacterial or fungal biofilms in both assays” value ([8]; sustained inhibition and disruption) was “neutral”.
For `N[C@@H](CCC(=O)O)C(=O)O` [Glutamic Acid, L-glutamic acid], the “Reduce Both” value [4] was “●● (two dots [ie. ••] signifies major effect (greater than about 30% change))”, the “Reduce Both” value [5] was “●● (two dots [ie. ••] signifies major effect (greater than about 30% change))” and the inhibition at 1 % (S. aureus [1]) was greater than 30%. The “Reduce B Biofilm” value (S. aureus [6]) was “●● (two dots [ie. ••] signifies major effect (greater than about 30% change))”, the “Reduce F Biofilm” value (C. albicans [3]) was “●● (two dots [ie. ••] signifies major effect (greater than about 30% change))” and the “Reduce F Biofilm” value (C. albicans [2]) was “●● (two dots [ie. ••] signifies major effect (greater than about 30% change))”. For the same molecule, the Effect on biofilms ([8]; single component on its own) was “very active against biofilms”.
